Reference: article PMC11500415, “Chemical inhibition of stomatal differentiation by perturbation of the master-regulatory bHLH heterodimer via an ACT-Like domain” (Nature Communications, 2024)
Values joined by “and” are separate entries in the source; they are usually repeats but may differ in a detail not shown here. Identical values can stand only once. Like-named read-outs stand apart in the source and are kept apart here.

Biological target: T1, MUTE_ACTL (Arabidopsis thaliana, UniProt Q9M8K6)
T1 construct: MUTE-ACTL (114-202); made in house; host or cells: E. coli BL21
T1 sequence (Q9M8K6 114-202): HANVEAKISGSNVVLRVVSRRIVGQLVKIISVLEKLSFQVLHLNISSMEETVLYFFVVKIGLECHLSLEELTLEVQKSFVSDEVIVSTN
Test: BLI direct binding
Parameters: species or system A. thaliana
From the text: A. thaliana SCRM (1-494), ΔNSPCH (98-364), MUTE (1-202), ΔNFAMA (190-414), MUTEΔC (1-114), MUTER133A_R134A, MUTEE162A_E163A, MUTER133A_R134A_E162A_E163A, SCRM-ACTL (405-494), MUTE-ACTL (114-202), SPCH-ACTL (285-364), FAMA-ACTL (306-414), MUTE_ACTLR133A_R134A, MUTE_ACTLE162A_E163A, MUTE_ACTLR133A_R134A_E162A_E163A were cloned into pGEX-4T-1 vector with an N-terminal GST tag and a thrombin cleavage sequence. For protein expression, the constructs were transformed into E. coli strain BL21. For each transformant, a single colony was selected and incubated in 10 ml LB liquid media. The overnight-incubated E. coli suspensions were transferred to 1 L LB medium and incubated at 37 °C for around 2 h until the OD600 reached 0.4–0.6. The isopropyl β-D-1-thiogalactopyranoside ([…] of final concentration) was added to the cultures and the strains were incubated at 22 °C for a further 18 h. GST-fused proteins were purified using glutathione agarose resin. The soluble portion of the cell lysate was loaded onto a GST-Sepharose column. Nonspecifically bound proteins were removed by washing the column with 20 mM Tris pH 8.0, 200 mM NaCl. The bound GST-fused protein was eluted with 10 mm glutathione and 20 mM Tris pH 8.0, 200 mM NaCl. The GST-fused proteins were exchanged with phosphate-buffered saline buffer, and then the solution was treated with 50 μg of thrombin for 10–12 h at 16 ^οC. The GST portion of the protein was cleaved during thrombin digestion, and then the whole solution was reloaded onto the glutathione S-transferase column to obtain pure protein. The purified proteins were further purified by gel filtration on a Superdex-200 (GE) column using fast protein liquid chromatography and phosphate buffer (pH 7.2) as the eluent. The purity of the protein was checked by SDS-PAGE. For detailed lists of oligo DNA and plasmid information, see Supplementary Tables 5, 6, respectively.
The binding affinities of SCRM to MUTE / MUTER133A_R134A / MUTEE162A_E163A / MUTER133A_R134A_E162A_E163A in presence and absence of Stomidazolone (3) and its analogues (AYSJ1059 (5) and AYSJ1061 (6)), and Stomidazolone / AYSJ1059 / AYSJ1061 interactions with GST-tagged SCRM, MUTE, SPCH, FAMA, MUTE ΔACTL, MUTE_ACTL, SCRM_ACTL, SPCH_ACTL and FAMA_ACTL, MUTER133A_134A, MUTEE162A_E163A, MUTER133A_R134A_E162A_E163A were measured using the Octet Red96 system (ForteBio, Pall Life Sciences) following the manufacturer’s protocols. The optical probes coated with anti-GST were first loaded with 500 nM GST tagged proteins before kinetic binding analyses. The experiment was performed in 96-well plates maintained at 30 °C. Each well was loaded with 200 μL reaction volume for the experiment. The binding buffer used in these experiments contained 1× PBS supplemented with 2% DMSO, 0.02% Tween20. […] There was no binding of the analytes to the unloaded probes as shown by the control wells. Binding kinetics to all seven concentrations of the analytes were measured simultaneously using default parameters on the instrument. The data were analyzed using the Octet data analysis software. The association and dissociation curves were fit with the 1:1 homogeneous ligand model. The kobs (observed rate constant) values were used to calculate Kd, with steady-state analysis of the direct binding. See Supplementary Table 3 for details.

[1] = MUTE_ACTL on Anti-GST sensor, Stomid 3.12 µM, rep-1, rep-2
[2] = MUTE_ACTL on Anti-GST sensor, Stomid 6.25 µM, rep-1, rep-2

In the case of `O=C1C(c2ccccc2)=NC(NS(=O)(=O)c2ccccc2)(c2ccccc2)N1S(=O)(=O)c1ccccc1` (stereo not drawn) [Stomidazolone], the Kd (BLI steady state, MUTE_ACTL, read-out: KD (SS)) is reported as 13.1 ± 1.3 µM, the Response (BLI, GST-MUTE_ACTL on Anti-GST sensor, Stomid 3.12 µM) is reported as 0.126 and 0.163 and the Response (BLI, GST-MUTE_ACTL on Anti-GST sensor, Stomid 6.25 µM) is reported as 0.271 and 0.242. For the same molecule, the Response (BLI, GST-MUTE_ACTL on Anti-GST sensor, Stomid 12.5 µM) was 0.425 and 0.391, the Response (BLI, GST-MUTE_ACTL on Anti-GST sensor, Stomid 25 µM) was 0.524 and 0.486 and the Response (BLI, GST-MUTE_ACTL on Anti-GST sensor, Stomid 50 µM) was 0.535 and 0.563. The Response (BLI, GST-MUTE_ACTL on Anti-GST sensor, Stomid 100 µM) was 0.611 and 0.632, the Response (BLI, GST-MUTE_ACTL on Anti-GST sensor, Stomid 200 µM) was 0.625 and 0.645 and the RMax (BLI, sensor at Stomid 3.12 µM) was 0.132 and 0.165. The Kd (BLI, sensor at Stomid 3.12 µM, read-out: KD) was 11.7 µM, the RMax (BLI, sensor at Stomid 6.25 µM) was 0.28 and 0.245 and the “kobs” value (BLI, sensor at Stomid 6.25 µM) was 0.00155 s⁻¹ and 0.00133 s⁻¹. For the same molecule, the “kon” value (BLI, sensor at Stomid 6.25 µM) was 4070 M⁻¹ s⁻¹, the Kd (BLI, sensor at Stomid 6.25 µM, read-out: KD) was 11.9 µM and the RMax (BLI, sensor at Stomid 12.5 µM) was 0.435 and 0.4. The “Req/Rmax(%)” value (BLI, sensor at Stomid 12.5 µM) was 49% and 87.1%, the “kdis” value (BLI, sensor at Stomid 12.5 µM) was 0.0482 s⁻¹ and the “kon” value (BLI, sensor at Stomid 12.5 µM) was 4050 M⁻¹ s⁻¹. For the same molecule, the Kd (BLI, sensor at Stomid 12.5 µM, read-out: KD) was 11.9 µM, the RMax (BLI, sensor at Stomid 25 µM) was 0.53 and 0.49 and the “Req/Rmax(%)” value (BLI, sensor at Stomid 25 µM) was 61.4% and 83.8%. For the same molecule, the “kdis” value (BLI, sensor at Stomid 25 µM) was 0.0488 s⁻¹, the “kobs” value (BLI, sensor at Stomid 25 µM) was 0.00162 s⁻¹ and 0.00294 s⁻¹ and the “kon” value (BLI, sensor at Stomid 25 µM) was 4070 M⁻¹ s⁻¹. The Kd (BLI, sensor at Stomid 25 µM, read-out: KD) was 11.8 µM and 12 µM, the RMax (BLI, sensor at Stomid 50 µM) was 0.545 and 0.565 and the “Req/Rmax(%)” value (BLI, sensor at Stomid 50 µM) was 71.3%. The “kdis” value (BLI, sensor at Stomid 50 µM) was 0.0473 s⁻¹, the “kon” value (BLI, sensor at Stomid 50 µM) was 4010 M⁻¹ s⁻¹ and the Kd (BLI, sensor at Stomid 50 µM, read-out: KD) was 11.9 µM and 11.8 µM. The RMax (BLI, sensor at Stomid 100 µM) was 0.621 and 0.64, the “Req/Rmax(%)” value (BLI, sensor at Stomid 100 µM) was 98.7% and the “kdis” value (BLI, sensor at Stomid 100 µM) was 0.0476 s⁻¹. The “kon” value (BLI, sensor at Stomid 100 µM) was 4080 M⁻¹ s⁻¹, the Kd (BLI, sensor at Stomid 100 µM, read-out: KD) was 12.1 µM and 11.7 µM and the RMax (BLI, sensor at Stomid 200 µM) was 0.63 and 0.655. The “Req/Rmax(%)” value (BLI, sensor at Stomid 200 µM) was 100%, the “kdis” value (BLI, sensor at Stomid 200 µM) was 0.0474 s⁻¹ and the “kobs” value (BLI, sensor at Stomid 200 µM) was 0.0329 s⁻¹ and 0.0251 s⁻¹. The “kon” value (BLI, sensor at Stomid 200 µM) was 4070 M⁻¹ s⁻¹, the Kd (BLI, sensor at Stomid 200 µM, read-out: KD) was 12 µM and 11.6 µM and the Kd (BLI, MUTE_ACTL, read-out: KD) was 12.2 ± 2.1 µM. For the same molecule, the RMax [1] was 0.132 and 0.165, the Response [1] was 0.126 and 0.163 and the Kd (MUTE_ACTL on Anti-GST sensor, Stomid 3.12 µM, rep-1, rep-2, read-out: KD) was 11.7 µM. For the same molecule, the RMax [2] was 0.28 and 0.245, the Response [2] was 0.271 and 0.242 and the “kobs” value [2] was 0.00155 s⁻¹ and 0.00133 s⁻¹. The “kon” value [2] was 4070 M⁻¹ s⁻¹, the Kd (MUTE_ACTL on Anti-GST sensor, Stomid 6.25 µM, rep-1, rep-2, read-out: KD) was 11.9 µM and the RMax (MUTE_ACTL on Anti-GST sensor, Stomid 12.5 µM, rep-1, rep-2) was 0.4 and 0.435.
